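Briefly, cells in 96-well plates were exposed to five compound concentrations for 48 h, and endpoints were estimated by linear interpolation. Abbreviation: GI50, concentration required for 50% inhibition of growth. Definition used: TGI = concentration required for complete inhibition of growth.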
What was measured:
Experiment in all cases: NCI tumour cell line growth inhibition, 48 h
SK-MEL-2 melanoma = system: SK-MEL-2 melanoma
U251 CNS = system: U251 CNS
786-0 renal = system: 786-0 renal
SK-MEL-5 melanoma = system: SK-MEL-5 melanoma
SN12C renal = system: SN12C renal
HOP-92 NSCLC = system: HOP-92 NSCLC
OVCAR-4 ovarian = system: OVCAR-4 ovarian
HOP-18 NSCLC = system: HOP-18 NSCLC
OVCAR-5 ovarian = system: OVCAR-5 ovarian
M14 melanoma = system: M14 melanoma
A498 renal = system: A498 renal
NCI-H460 lung = system: NCI-H460 lung
MALME-3M melanoma = system: MALME-3M melanoma
RPMI-8226 leukemia = system: RPMI-8226 leukemia
SF-539 CNS = system: SF-539 CNS
MDA-N = system: MDA-N
SNB-19 CNS = system: SNB-19 CNS
SNB-78 CNS = system: SNB-78 CNS
HS 578T breast = system: HS 578T breast
OVCAR-8 ovarian = system: OVCAR-8 ovarian
NCI-H522 lung = system: NCI-H522 lung
HT29 colon = system: HT29 colon
SW-620 colon = system: SW-620 colon
ACHN renal = system: ACHN renal
SNB-75 CNS = system: SNB-75 CNS
KM20L2 colon = system: KM20L2 colon
HOP-62 NSCLC = system: HOP-62 NSCLC
PC-3 prostate = system: PC-3 prostate
MDA-MB-435 = system: MDA-MB-435
HCT-116 colon = system: HCT-116 colon
RXF 393 renal = system: RXF 393 renal
IGROV1 ovarian = system: IGROV1 ovarian
LXFL 529 NSCLC = system: LXFL 529 NSCLC
NCI-H23 lung = system: NCI-H23 lung
UACC-62 melanoma = system: UACC-62 melanoma
HCT-15 colon = system: HCT-15 colon
NCI/ADR-RES ovarian = system: NCI/ADR-RES ovarian
NCI-H226 lung = system: NCI-H226 lung
MCF7 breast = system: MCF7 breast
MOLT-4 leukemia = system: MOLT-4 leukemia
DLD-1 colon = system: DLD-1 colon
HL-60(TB) leukemia = system: HL-60(TB) leukemia
BT-549 breast = system: BT-549 breast
DU-145 prostate = system: DU-145 prostate
UACC-257 melanoma = system: UACC-257 melanoma
OVCAR-3 ovarian = system: OVCAR-3 ovarian
T-47D breast = system: T-47D breast
CAKI-1 renal = system: CAKI-1 renal
SK-MEL-28 melanoma = system: SK-MEL-28 melanoma
CCRF-CEM leukemia = system: CCRF-CEM leukemia
A549 NSCLC = system: A549 NSCLC
HCC-2998 colon = system: HCC-2998 colon
DMS 273 small cell lung = system: DMS 273 small cell lung
SK-OV-3 ovarian = system: SK-OV-3 ovarian
UO-31 renal = system: UO-31 renal
EKVX NSCLC = system: EKVX NSCLC
MDA-MB-231 breast = system: MDA-MB-231 breast
SF-268 CNS = system: SF-268 CNS
DMS 114 small cell lung = system: DMS 114 small cell lung
LOX IMVI melanoma = system: LOX IMVI melanoma
TK-10 renal = system: TK-10 renal
COLO 205 colon = system: COLO 205 colon
SF-295 CNS = system: SF-295 CNS
KM12 colon = system: KM12 colon
K-562 leukemia = system: K-562 leukemia
M19-MEL melanoma = system: M19-MEL melanoma

CC(=O)[O-].[Ni].c1ccc(/C(=N\Nc2ccccn2)c2ccccn2)cc1
TGI (SK-MEL-2 melanoma): 24.9 µM | TGI (U251 CNS): 22.7 µM | TGI (786-0 renal): 22.1 µM | TGI (SK-MEL-5 melanoma): 18.3 µM | TGI (SN12C renal): 29.3 µM | TGI (HOP-92 NSCLC): 22.3 µM | TGI (OVCAR-4 ovarian): > 59.7 µM | GI50 (HOP-18 NSCLC): 2.81 µM | TGI (HOP-18 NSCLC): > 100 µM | TGI (OVCAR-5 ovarian): 47.3 µM | TGI (M14 melanoma): 17.8 µM | TGI (A498 renal): 36.3 µM | TGI (NCI-H460 lung): 28 µM | TGI (MALME-3M melanoma): 20.9 µM | TGI (RPMI-8226 leukemia): 16.3 µM | TGI (SF-539 CNS): 24.7 µM | TGI (MDA-N): 21.1 µM | TGI (SNB-19 CNS): 54 µM | TGI (SNB-78 CNS): > 100 µM | TGI (HS 578T breast): > 100 µM | TGI (OVCAR-8 ovarian): 31.6 µM | TGI (NCI-H522 lung): 20.9 µM | GI50 (HT29 colon): 0.056 µM | TGI (HT29 colon): 23.8 µM | TGI (SW-620 colon): 32.2 µM | TGI (ACHN renal): 53 µM | TGI (SNB-75 CNS): 46.1 µM | TGI (KM20L2 colon): 22.1 µM | TGI (HOP-62 NSCLC): 30.1 µM | TGI (PC-3 prostate): 19.9 µM | TGI (MDA-MB-435): 22.4 µM | TGI (HCT-116 colon): 18 µM | TGI (RXF 393 renal): 30 µM | TGI (IGROV1 ovarian): 29.7 µM | TGI (LXFL 529 NSCLC): 16 µM | TGI (NCI-H23 lung): 28.9 µM | TGI (UACC-62 melanoma): 18.8 µM | TGI (HCT-15 colon): 41.1 µM | TGI (NCI/ADR-RES ovarian): 25.9 µM | TGI (NCI-H226 lung): 47.6 µM | GI50 (MCF7 breast): 6.58 µM | TGI (MCF7 breast): 30.7 µM | GI50 (MOLT-4 leukemia): 0.076 µM | TGI (MOLT-4 leukemia): 24.3 µM | TGI (DLD-1 colon): 32.7 µM | TGI (HL-60(TB) leukemia): 0.61 µM | TGI (BT-549 breast): 45.1 µM | TGI (DU-145 prostate): 25.1 µM | TGI (UACC-257 melanoma): 23.2 µM | GI50 (OVCAR-3 ovarian): 0.0385 µM | TGI (OVCAR-3 ovarian): 19.5 µM | TGI (T-47D breast): 15.6 µM | TGI (CAKI-1 renal): 39.3 µM | TGI (SK-MEL-28 melanoma): 18.8 µM | GI50 (CCRF-CEM leukemia): 0.0976 µM | TGI (CCRF-CEM leukemia): 44.3 µM | TGI (A549 NSCLC): 49.2 µM | TGI (HCC-2998 colon): 19.8 µM | TGI (DMS 273 small cell lung): 25.5 µM | TGI (SK-OV-3 ovarian): 43.2 µM | TGI (UO-31 renal): 18.8 µM | GI50 (EKVX NSCLC): 0.0973 µM | TGI (EKVX NSCLC): 55.5 µM | GI50 (MDA-MB-231 breast): 6.01 µM | TGI (MDA-MB-231 breast): 22.8 µM | TGI (SF-268 CNS): 30.1 µM | TGI (DMS 114 small cell lung): 3.36 µM | TGI (LOX IMVI melanoma): 22.3 µM | TGI (TK-10 renal): 20.7 µM | GI50 (COLO 205 colon): 0.0121 µM | TGI (SF-295 CNS): 26.8 µM | TGI (KM12 colon): 23.1 µM | TGI (K-562 leukemia): 28.1 µM | TGI (M19-MEL melanoma): 39.3 µM

Source: PubChem BioAssay (NCI)
